Assay results: US6589970B2, “6-(aryl-amido or aryl-amidomethyl)-naphthalen-2-yloxy-acidic derivatives as inhibitors of plasminogen activator inhibitor type-1 (PAI-1)” (Wyeth, priority 2001, dated 2003)
Structures can show the parent of a compound that is named as a salt.

Experiments:
[1] = target: T1, recombinant human plasminogen activator inhibitor-1 (PAI-1) (Homo sapiens, UniProt P05121); assay: Primary Screen for the PAI-1 Inhibition; format: biochemical; conditions: for inhibition at 100 µM: 100 μM test compound, read-out: % Inhib. 100 μM; for inhibition at 25 µM: 25 μM test compound, read-out: % Inhib. 25 μM
T1 construct: purchased Molecular Innovations, Royal Oak, Mich
Method in brief: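 Compound (1-100 μM final, ≤0.2% DMSO) was preincubated for 1 h at room temperature with 140 nM recombinant human PAI-1 at pH 6.6. tPA was then added at 70 nM for 30 min. Residual tPA activity was measured with Spectrozyme-tPA (A405 at 0 and 60 min) and taken as relative PAI-1 inhibition.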

[2] = target: T1, recombinant human plasminogen activator inhibitor-1 (PAI-1); assay: Modification of the Primary Screen for the PAI-1 Inhibition (IC50); format: biochemical
Method: Test compounds are dissolved in DMSO at a final concentration of 10 mM, then diluted 100× in physiologic buffer. The inhibitory assay is initiated by the addition of the test compound (1-100 μM final concentration, maximum DMSO concentration of 0.2%) in a pH 6.6 buffer containing 140 nM recombinant human plasminogen activator inhibitor-1 (PAI-1; Molecular Innovations, Royal Oak, Mich.). Following a 1 hour incubation at room temperature, 70 nM of recombinant human tissue plasminogen activator (tPA) is added, and the combination of the test compound, PAI-1 and tPA is incubated for an additional 30 minutes. Following the second incubation, Spectrozyme-tPA (American Diagnostica, Greenwich, Conn.), a chromogenic substrate for tPA, is added and absorbance read at 405 nm at 0 and 60 minutes. Relative PAI-1 inhibition is equal to the residual tPA activity in the presence of the test compound and PAI-1. Control treatments include the complete inhibition of tPA by PAI-1 at the molar ratio employed (2:1), and the absence of any effect of the test compound on tPA alone.

human PAI-1 = human PAI-1 (Homo sapiens, UniProt P05121); assay: Assay for Determining IC50 of Inhibition of PAI-1 (Antibody Assay); format: biochemical; conditions: active PAI-1 bound to tPA-coated plate
Method: This assay is based upon the non-SDS dissociable interaction between tPA and active PAI-1. Assay plates are initially coated with human tPA (10 μg/ml). The test compounds are dissolved in DMSO at 10 mM, then diluted with physiologic buffer (pH 7.5) to a final concentration of 1-50 μM. The test compounds are incubated with human PAI-1 (50 ng/ml) for 15 minutes at room temperature. The tPA-coated plate is washed with a solution of 0.05% Tween 20 and 0.1% BSA, then the plate is blocked with a solution of 3% BSA. An aliquot of the test compound/PAI-1 solution is then added to the tPA-coated plate, incubated at room temperature for 1 hour, and washed. Active PAI-1 bound to the plate is assessed by adding an aliquot of a 1:1000 dilution of the 33B8 monoclonal antibody against human PAI-1, and incubating the plate at room temperature for 1 hour (Molecular Innovations, Royal Oak, Mich. The plate is again washed, and a solution of goat anti-mouse IgG-alkaline phosphatase conjugate is added at a 1:50,000 dilution in goat serum. The plate is incubated 30 minutes at room temperature, washed, and a solution of alkaline phosphatase substrate is added. The plate is incubated 45 minutes at room temperature, and color development is determined at OD405nm. The quantitation of active PAI-1 bound to tPA at varying concentrations of the test compound is used to determine the IC50. Results are analyzed using a logarithmic best-fit equation. The assay sensitivity is 5 ng/ml of human PAI-1 as determined from a standard curve ranging from 0-100 ng/ml.

Chain of human PAI-1 (P05121 24-402): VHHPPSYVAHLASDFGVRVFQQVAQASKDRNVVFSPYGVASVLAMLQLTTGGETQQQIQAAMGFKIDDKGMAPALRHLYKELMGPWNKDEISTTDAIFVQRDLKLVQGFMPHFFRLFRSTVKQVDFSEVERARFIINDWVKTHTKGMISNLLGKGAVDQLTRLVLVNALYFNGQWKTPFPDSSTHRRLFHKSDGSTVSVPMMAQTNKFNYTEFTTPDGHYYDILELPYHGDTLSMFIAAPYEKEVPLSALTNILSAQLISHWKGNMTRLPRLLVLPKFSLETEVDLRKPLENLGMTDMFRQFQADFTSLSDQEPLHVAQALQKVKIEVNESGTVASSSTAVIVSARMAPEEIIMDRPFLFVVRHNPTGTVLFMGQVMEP
T1 sequence (P05121 24-402): as above

| inhibition at 100 µM [1] | IC50 [2] | melting point | IC50 (human PAI-1) | inhibition at 25 µM [1] | Structure (SMILES) |
| --- | --- | --- | --- | --- | --- |
| 86% | 8.7 µM | 86 to 100 °C | 8.12 µM | 35% | O=C(NCc1ccc2c(Br)c(OC(Cc3ccccc3)C(=O)O)ccc2c1)c1ccc(Oc2cc(Cl)cc(Cl)c2)o1 (stereo not drawn) [Example 53, 2-[1-Bromo-6-({[5-(3,5-dichloro-phenoxy)-furan-2-carbonyl]-amino}-methyl)-naphthalen-2-yloxy]-3-phenyl-propionic acid] |
| 60% | 11.8 µM |  | 16.8 µM | 35% | O=C(NCc1ccc2c(Br)c(OC(Cc3ccccc3)C(=O)O)ccc2c1)c1ccc(C2CCCCC2)cc1 (stereo not drawn) [Example 55] |
| 100% | 1.9 µM | 160 to 163 °C |  | 84% | CC(C)(C)c1cc(C(=O)NCc2ccc3c(Br)c(OC(Cc4ccccc4)C(=O)O)ccc3c2)cc(C(C)(C)C)c1 (stereo not drawn) [Example 56, 2-{1-Bromo-6-[(3,5-di-tert-butyl-benzoylamino)-methyl]-naphthalen-2-yloxy}-3-phenyl-propionic acid] |
| 98% | 5.5 µM |  |  | 24% | O=C(NCc1ccc2c(Br)c(OC(Cc3ccccc3)C(=O)O)ccc2c1)c1cccc(Oc2ccccc2)c1 (stereo not drawn) [Example 57, 2-{1-Bromo-6-[(3-phenoxy-benzoylamino)-methyl]-naphthalen-2-yloxy}-3-phenyl-propionic acid] |
| 78% | 36.5 µM |  |  | 12% | O=C(O)COc1ccc2cc(CNC(=O)c3cc(-c4ccccc4Cl)oc3C(F)(F)F)ccc2c1 [Example 81, [6-({[5-(2-Chloro-phenyl)-2-trifluoromethyl-furan-3-carbonyl]-amino}-methyl)-naphthalen-2-yloxy]-acetic acid] |
| 91% | 6.9 µM |  | 18.7 µM | 69% | CCCCc1oc2ccccc2c1C(=O)N(CCCC)Cc1ccc2c(Br)c(OCc3nnn[nH]3)ccc2c1 [Example 51, 2-Butyl-benzofuran-3-carboxylic acid [5-bromo-6-(1H-tetrazol-5-ylmethoxy)-naphthalen-2-ylmethyl]-butyl-amide] |

Continued, compound first:

| Structure (SMILES) | inhibition at 100 µM [1] | IC50 [2] | melting point | IC50 (human PAI-1) | inhibition at 25 µM [1] |
| --- | --- | --- | --- | --- | --- |
| CCCCc1oc2ccccc2c1C(=O)NCc1ccc2c(Br)c(OCc3nnn[nH]3)ccc2c1.[Na] [Example 17, 2-Butyl-benzofuran-3-carboxylic acid [5-bromo-6-(1H-tetrazol-5-ylmethoxy)-naphthalen-2-ylmethyl]-amide sodium salt] | 80% | 1.4 µM | 214 to 215 °C | 16.1 µM |  |
| CCCCc1oc2ccccc2c1C(=O)N(Cc1ccccc1)Cc1ccc2c(Br)c(OCc3nnn[nH]3)ccc2c1 [Example 48, 2-Butyl-benzofuran-3-carboxylic acid benzyl-[5-bromo-6-(1H-tetrazol-5-ylmethoxy)-naphthalen-2-ylmethyl]-amide] | 85% | 20.9 µM |  | 17.5 µM | 48% |
| CCCCc1oc2ccccc2c1C(=O)Nc1ccc2cc(OCc3nn[nH]n3)ccc2c1 [Example 3, 2-Butyl-benzofuran-3-carboxylic acid [6-(2H-tetrazol-5-ylmethoxy)-naphthalen-2-yl]-amide] | 75% | 3.2 µM | 194 to 198 °C |  | 38% |
| CCCCc1oc2ccccc2c1C(=O)NCc1ccc2c(-c3ccc(OC)cc3)c(OCc3nnn[nH]3)ccc2c1 [Example 25, 2-Butyl-benzofuran-3-carboxylic [5-(4-methoxy phenyl)-6-(1H-tetrazol-5-ylmethoxy)-naphthalen-2-ylmethyl]-amide, sodium salt] | 94% | 4.6 µM |  |  | 3% |
| CCCCc1oc2ccccc2c1C(=O)N(C)Cc1ccc2c(Br)c(OCc3nnn[nH]3)ccc2c1 [Example 31, 2-Butyl-benzofuran-3-carboxylic acid [5-bromo-6-(1H-tetrazol-5-ylmethoxy)-naphthalen-2-ylmethyl]-methyl-amide] | 95% | 15.6 µM | 190 to 194 °C | 8.47 µM | 62% |
| CCCCc1oc2ccccc2c1C(=O)NCc1ccc2c(-c3ccc(Cl)cc3)c(OCc3nnn[nH]3)ccc2c1 [Example 26, 2-Butyl-benzofuran-3-carboxylic acid [5-(4-chloro-phenyl)-6-(1-tetrazol-5-ylmethoxy)-naphthalen-2-ylmethyl]-amide] | 98% | 4.3 µM | 208 to 211 °C |  | 20% |
| CCCCc1oc2ccccc2c1C(=O)NCc1ccc2c(-c3ccccc3)c(OCC(=O)O)ccc2c1 [Example 28, (6-{[(2-Butyl-benzofuran-3-carbonyl)-amino]-methyl}-1-phenyl-naphthanen-2-yloxy)-acetic acid] | 100% | 20.2 µM | 180 to 183 °C |  | 22% |
| CCCCc1oc2ccccc2c1C(=O)Nc1ccc2c(Br)c(OC(Cc3ccccc3)C(=O)O)ccc2c1 (stereo not drawn) [Example 7, 2-{1-Bromo-6-[(2-butyl-benzofuran-3-carbonyl)-amino]-naphthalen-2-yloxy}-3-phenyl-propionic acid] | 83% | 7.8 µM |  | 16.6 µM | 64% |
| CCCCc1oc2ccccc2c1C(=O)NCc1ccc2c(-c3ccccc3)c(OCc3nnn[nH]3)ccc2c1 [Example 24, 2-Butyl-benzofuran-3-carboxylic acid [5-phenyl-6-(1H-tetrazol-5-ylmethoxy)-naphthalen-2-ylmethyl]-amide] | 72% | 9.94 µM | 192 to 196 °C | 16.8 µM | 25% |
